According to patent US20120219615A1, “Therapeutic Use of a TLR Agonist and Combination Therapy” (The Trustees of the University of Pennsylvania, priority 2010, published 2012):

How the values were obtained:
[1] = biological target: T1, TLR8 (Homo sapiens, UniProt Q9NR97); assay: HEK293 cells transfected with TLR8 and NF-κB driven reporter gene; assay type: cell-based; details: HEK293 transfectants
T1 construct: assessed in peripheral blood mononuclear cells (PBMCs) from 15 healthy donors; endogenous in cells; host or cells: PBMCs from 15 healthy donors
T1 sequence (Q9NR97 27-1041): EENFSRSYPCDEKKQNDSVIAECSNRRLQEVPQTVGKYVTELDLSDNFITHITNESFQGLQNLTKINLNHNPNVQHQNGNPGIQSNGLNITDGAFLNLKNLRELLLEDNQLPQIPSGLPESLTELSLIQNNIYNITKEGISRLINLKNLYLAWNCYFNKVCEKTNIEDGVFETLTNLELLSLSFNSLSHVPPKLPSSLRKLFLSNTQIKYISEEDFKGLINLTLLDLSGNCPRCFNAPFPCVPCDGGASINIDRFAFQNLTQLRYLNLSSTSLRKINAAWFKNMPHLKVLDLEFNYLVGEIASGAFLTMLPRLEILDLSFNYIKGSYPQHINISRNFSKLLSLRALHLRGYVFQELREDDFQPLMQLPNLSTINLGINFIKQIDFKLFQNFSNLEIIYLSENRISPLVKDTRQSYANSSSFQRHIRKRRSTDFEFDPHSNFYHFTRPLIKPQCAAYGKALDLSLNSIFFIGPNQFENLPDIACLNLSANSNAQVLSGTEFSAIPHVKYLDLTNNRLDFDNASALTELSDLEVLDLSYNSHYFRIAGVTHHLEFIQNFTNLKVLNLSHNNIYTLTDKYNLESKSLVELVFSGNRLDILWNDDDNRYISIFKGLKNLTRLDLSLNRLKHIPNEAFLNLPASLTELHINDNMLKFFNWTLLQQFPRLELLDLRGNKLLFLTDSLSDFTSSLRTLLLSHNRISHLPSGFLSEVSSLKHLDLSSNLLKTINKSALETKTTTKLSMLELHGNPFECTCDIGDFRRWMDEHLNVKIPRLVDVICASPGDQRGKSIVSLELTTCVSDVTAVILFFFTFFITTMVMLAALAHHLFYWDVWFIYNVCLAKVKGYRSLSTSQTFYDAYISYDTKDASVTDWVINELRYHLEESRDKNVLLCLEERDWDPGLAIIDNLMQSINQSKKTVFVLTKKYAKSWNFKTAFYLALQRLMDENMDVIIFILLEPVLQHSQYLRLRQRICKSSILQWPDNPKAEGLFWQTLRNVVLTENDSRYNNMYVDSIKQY
Experimental: (§1) The half-maximal effective concentration (EC50) for VTX-2337 activation of TLR8 and TLR7 was assessed in peripheral blood mononuclear cells (PBMCs) from 15 healthy donors and also in HEK293 cells transfected with TLR8 or TLR7 and an NF-κB driven reporter gene. […] Also it was observed that VTX-2337 had no activity on TLR2, TLR3, TLR4, TLR5, TLR6, or TLR9 at concentrations up to 25 μM.

[2] = biological target: T2, TLR9 (Homo sapiens, UniProt Q9NR96); assay: Activity on TLR9; assay type: cell-based; details: concentrations up to 25 μM
T2 sequence (Q9NR96 26-1032): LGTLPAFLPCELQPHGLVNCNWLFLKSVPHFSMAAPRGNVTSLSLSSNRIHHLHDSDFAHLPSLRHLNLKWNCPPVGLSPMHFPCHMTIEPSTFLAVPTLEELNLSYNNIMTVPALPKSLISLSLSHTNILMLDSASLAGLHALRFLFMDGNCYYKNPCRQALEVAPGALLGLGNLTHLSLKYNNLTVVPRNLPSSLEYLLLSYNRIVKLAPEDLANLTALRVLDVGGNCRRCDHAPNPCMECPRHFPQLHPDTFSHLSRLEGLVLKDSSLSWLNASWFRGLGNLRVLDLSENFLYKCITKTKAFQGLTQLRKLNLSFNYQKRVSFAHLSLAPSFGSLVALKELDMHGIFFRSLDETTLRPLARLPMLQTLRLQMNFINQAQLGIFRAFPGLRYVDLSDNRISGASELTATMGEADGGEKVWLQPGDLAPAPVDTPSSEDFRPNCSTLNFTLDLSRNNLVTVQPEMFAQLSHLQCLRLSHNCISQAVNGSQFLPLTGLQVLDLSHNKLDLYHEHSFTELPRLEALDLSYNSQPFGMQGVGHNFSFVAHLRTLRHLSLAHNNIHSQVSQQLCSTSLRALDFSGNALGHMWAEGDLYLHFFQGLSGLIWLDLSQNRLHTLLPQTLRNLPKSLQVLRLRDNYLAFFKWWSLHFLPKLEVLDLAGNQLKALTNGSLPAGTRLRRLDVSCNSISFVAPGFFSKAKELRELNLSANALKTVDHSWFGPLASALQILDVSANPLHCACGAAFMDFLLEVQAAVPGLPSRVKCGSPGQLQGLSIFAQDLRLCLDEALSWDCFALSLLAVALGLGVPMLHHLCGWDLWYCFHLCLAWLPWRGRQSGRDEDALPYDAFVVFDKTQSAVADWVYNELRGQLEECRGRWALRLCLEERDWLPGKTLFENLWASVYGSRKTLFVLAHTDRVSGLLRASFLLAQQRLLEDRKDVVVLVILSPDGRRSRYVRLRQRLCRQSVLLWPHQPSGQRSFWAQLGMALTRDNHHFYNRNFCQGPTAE
Experimental: as §1

- EC50 [1]: 70 nM
- activity on TLR9 [2]: no activity
Structure (SMILES): CCCN(CCC)C(=O)C1=Cc2ccc(-c3ccc(C(=O)N4CCCC4)cc3)cc2N=C(N)C1 [VTX-2337, 2-amino-N,N-dipropyl-8-(4-(pyrrolidine-1-carbonyl)phenyl)-3H-benzo[b]azepine-4-carboxamide]
